Data reported in patent US8048899B2, “Compounds which selectively modulate the CB2 receptor” (Boehringer Ingelheim International GmbH, priority 2008, dated 2011).
Read-outs that look alike come from different tables or passages of the source.

Columns and labels:
human CB2R = biological target: T1, human CB2R (Homo sapiens, UniProt P34972); assay: CB2R mediated modulation of cAMP synthesis; assay type: cell-based
T1 construct: host or cells: CHO cells
Experimental: B. CB2R Mediated Modulation of cAMP Synthesis:
Compounds of the invention are evaluated for their CB2 agonist or inverse agonistic activity in accordance with the following experimental method.
(§1) CHO cells expressing human CB2R (Euroscreen) are plated at a density of 5000 cells per well in 384 well plates and incubated overnight at 37° C. After removing the media, the cells are treated with test compounds diluted in stimulation buffer containing 1 mM IBMX, 0.25% BSA and 10 uM Forskolin. The assay is incubated for 30 minutes at 37° C. Cells are lysed and the cAMP concentration is measured using DiscoverX-XS cAMP kit, following the manufacturer's protocol. In this setting, agonists will decrease forskolin induced production of cAMP while inverse agonists will further increase forskolin induced production of cAMP. EC50 of agonists are calculated as follows. The maximal amount of cAMP produced by forskolin compared to the level of cAMP inhibited by 1 uM CP55940 is defined as 100%. […] Data is analyzed using a four-parameter logistic model. (Model 205 of XLfit 4.0).

human CB1R = biological target: T2, human CB1R (Homo sapiens, UniProt P21554); assay: CB1R mediated modulation of cAMP synthesis; assay type: cell-based
T2 construct: host or cells: CHO cells
T2 sequence (P21554 whole entry): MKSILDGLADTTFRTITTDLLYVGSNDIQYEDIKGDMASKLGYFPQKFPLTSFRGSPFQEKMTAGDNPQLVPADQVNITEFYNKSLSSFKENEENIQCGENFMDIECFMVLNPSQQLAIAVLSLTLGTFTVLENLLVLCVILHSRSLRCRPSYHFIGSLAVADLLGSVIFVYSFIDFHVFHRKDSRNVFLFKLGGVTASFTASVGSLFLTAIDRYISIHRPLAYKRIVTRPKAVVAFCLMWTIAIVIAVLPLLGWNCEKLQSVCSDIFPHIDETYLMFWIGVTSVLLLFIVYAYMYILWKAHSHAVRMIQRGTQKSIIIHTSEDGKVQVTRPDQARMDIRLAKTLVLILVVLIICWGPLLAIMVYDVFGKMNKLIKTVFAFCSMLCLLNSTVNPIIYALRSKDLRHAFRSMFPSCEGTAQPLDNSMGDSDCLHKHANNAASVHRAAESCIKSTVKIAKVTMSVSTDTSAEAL
Experimental: C. CB1R Mediated Modulation of cAMP Synthesis:
Compounds of the invention are evaluated for their CB1 agonist or inverse agonistic activity in accordance with the following experimental method.
as §1, with “CB1R” for “CB2R”

[1] = CHO cells expressing human CB2R, inhibition of forskolin-stimulated cAMP synthesis, read-out: CB2 EC50
[2] = CHO cells expressing human CB1R, inhibition of forskolin-stimulated cAMP synthesis, read-out: CB1 EC50

T1 sequence (P34972 whole entry): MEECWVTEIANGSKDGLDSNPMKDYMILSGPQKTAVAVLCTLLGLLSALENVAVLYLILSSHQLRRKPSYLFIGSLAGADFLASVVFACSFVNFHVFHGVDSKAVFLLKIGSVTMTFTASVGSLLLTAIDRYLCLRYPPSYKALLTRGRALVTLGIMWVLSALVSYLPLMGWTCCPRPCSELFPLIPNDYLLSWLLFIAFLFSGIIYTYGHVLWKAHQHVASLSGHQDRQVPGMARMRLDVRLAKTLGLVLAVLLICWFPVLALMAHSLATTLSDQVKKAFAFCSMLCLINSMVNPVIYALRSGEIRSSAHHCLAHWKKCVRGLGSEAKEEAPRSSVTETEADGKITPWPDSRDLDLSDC

Compound	EC50 (human CB2R) [nM]	EC50 (human CB1R) [nM]	EC50 (human CB2R; [1]) [nM]	EC50 (human CB1R; [2]) [nM]
CC(C)(CO)c1cc(NC(=O)C(C)(C)S(=O)(=O)C2CCOCC2)on1	11	> 50000	–	–
CC(C)(CO)c1cc(NC(=O)C(C)(C)S(=O)(=O)N2CCC2)on1	–	–	288	> 20000
COc1ccc(-c2nnc(NC(=O)C(C)(C)S(=O)(=O)CC3CCOCC3)[nH]2)cc1	9.5	> 50000	–	–
CC(C)(CO)c1cc(NC(=O)C(C)(C)S(=O)(=O)C2CCCC2)on1	75	> 20000	–	–
CC(C)(CO)c1cc(NC(=O)C(C)(C)S(=O)(=O)CC2CCC2)on1	82	> 20000	–	–
COc1ccc(-c2nnc(NC(=O)C(C)(C)S(=O)(=O)C3CCOCC3)[nH]2)cc1	0.66	> 20000	–	–
CC(C)(CO)c1cc(NC(=O)C(C)(C)S(=O)(=O)c2ccc(F)cc2)on1	30	> 20000	–	–
CC(C)(C(=O)Nc1nnc(-c2ccc(O)cc2)[nH]1)S(=O)(=O)CC1CCOCC1	100	> 20000	–	–
CC(C)(C(=O)Nc1nnc(-c2ccc(O)cc2)[nH]1)S(=O)(=O)C1CCOCC1	5	> 20000	–	–
COCC(C)(C)c1cc(NC(=O)C(C)(C)S(=O)(=O)CC2CCOCC2)on1	29	> 20000	–	–
COc1ccc(-c2nnc(NC(=O)C(C)(C)S(=O)(=O)C3CCCC3)[nH]2)cc1	14	> 20000	–	–
COc1ccc(-c2nnc(NC(=O)C(C)(C)S(=O)(=O)CC(C)C)[nH]2)cc1	69	> 20000	–	–
COc1ccc(-c2nnc(NC(=O)C(C)(C)S(=O)(=O)C3CCN(S(C)(=O)=O)CC3)[nH]2)cc1	16	29400	–	–
COc1ccc(-c2nnc(NC(=O)C(C)(C)S(=O)(=O)c3ccc(S(C)(=O)=O)cc3F)[nH]2)cc1	2.1	> 20000	–	–
COc1ccc(-c2nnc(NC(=O)C(C)(C)S(=O)(=O)N3CCC3)[nH]2)cc1	32	> 20000	–	–
COc1ccc(-c2nnc(NC(=O)C(C)(C)S(=O)(=O)N3CC[C@@H](F)C3)[nH]2)cc1	33	> 50000	–	–
COCC(C)(C)c1cc(NC(=O)C(C)(C)S(=O)(=O)C2CCOCC2)on1	3.1	> 20000	–	–
CC(C)(CO)c1cc(NC(=O)C(C)(C)S(=O)(=O)C2CCN(S(C)(=O)=O)CC2)on1	14	> 50000	–	–
CC(C)(CO)c1cc(NC(=O)C(C)(C)S(=O)(=O)CC2CCC(=O)CC2)on1	68	> 50000	–	–
CC(C)(CO)c1cc(NC(=O)C(C)(C)S(=O)(=O)C2CCOCC2)no1	33	> 50000	–	–
CC(C)(CO)c1cc(NC(=O)C(C)(C)S(=O)(=O)CCCC(F)(F)F)no1	25	> 20000	–	–
CC(C)(CO)c1nnc(NC(=O)C(C)(C)S(=O)(=O)C2CCOCC2)s1	48	> 50000	–	–
COc1ccc(-c2nnc(NC(=O)C(C)(C)S(=O)(=O)C[C@H]3CCOC3)[nH]2)cc1	90	> 50000	–	–

Compound	EC50 (human CB2R) [nM]	EC50 (human CB1R) [nM]	EC50 (human CB2R; [1]) [nM]	EC50 (human CB1R; [2]) [nM]
COc1ccc(-c2nnc(NC(=O)C(C)(C)S(=O)(=O)C[C@@H]3CCOC3)[nH]2)cc1	240	> 50000	–	–
COCC(C)(C)c1cc(NC(=O)C(C)(C)S(=O)(=O)C2CCOCC2)no1	3.5	> 50000	–	–
CC(C)(C(=O)Nc1cc(C2(CO)CCC2)no1)S(=O)(=O)C1CCOCC1	77	> 50000	–	–
CC(C)(C(=O)Nc1cc(C2(CO)CCCC2)no1)S(=O)(=O)C1CCOCC1	15	> 50000	–	–
CC(C)(C(=O)Nc1cc(C2(CO)CCCC2)no1)S(=O)(=O)CC1CCOCC1	206	> 50000	–	–
CCOCC(C)(C)c1cc(NC(=O)C(C)(C)S(=O)(=O)C2CCOCC2)on1	3.6	> 20000	–	–
CC(C)(C(=O)Nc1cc(C2(CO)CCCCC2)no1)S(=O)(=O)C1CCOCC1	38	> 20000	–	–
COc1ccc(-c2nnc(NC(=O)C(C)(C)S(=O)(=O)CC3CC3)[nH]2)cc1	32	> 50000	–	–
CC(C)(C(=O)Nc1nnc(-c2ccc(O)cc2)[nH]1)S(=O)(=O)c1ccc(F)cc1	4	> 20000	–	–
COCC(C)(C)c1cc(NC(=O)C(C)(C)S(=O)(=O)C2CCCC2)on1	15	> 20000	–	–
CC(C)(C(=O)Nc1cc(C2(CO)CCCC2)no1)S(=O)(=O)CC1CCC1	25	> 20000	–	–
CC(C)(C(=O)Nc1cc(C2(CO)CCCCC2)no1)S(=O)(=O)CC1CCC1	67	> 20000	–	–
CC(C)(C(=O)Nc1cc(C2(CO)CCC2)no1)S(=O)(=O)CC1CCC1	74	> 50000	–	–
CC(C)CCS(=O)(=O)C(C)(C)C(=O)Nc1cc(C2(CO)CC2)no1	14	> 20000	–	–
CC[C@H](C)S(=O)(=O)C(C)(C)C(=O)Nc1cc(C2(CO)CCCC2)no1	82	> 20000	–	–
CC(C)(CO)c1cc(NC(=O)C(C)(C)S(=O)(=O)CCC(F)(F)F)on1	–	–	105	> 50000
CC(C)(C(=O)Nc1cc(C2(CO)CCCC2)no1)S(=O)(=O)C1CCCC1	45	> 20000	–	–
CCOc1ccc(-c2n[nH]c(NC(=O)C(C)(C)S(=O)(=O)CC3CC3)n2)cc1	–	–	488	> 50000
COCC(C)(C)c1cc(NC(=O)C(C)(C)S(=O)(=O)CC2CC2)no1	–	–	121	> 50000
CC(C)(CO)c1cc(NC(=O)C(C)(C)S(=O)(=O)c2ccc(F)cc2)no1	45	> 50000	–	–
CC(C)(CO)c1cc(NC(=O)C(C)(C)S(=O)(=O)CC2CCC2)no1	96	> 50000	–	–
CC(C)(CO)c1cc(NC(=O)C(C)(C)S(=O)(=O)C2CCCC2)no1	–	–	222	≥ 50000
CC(C)(CO)c1cc(NC(=O)C(C)(C)S(=O)(=O)c2cccc(F)c2F)no1	69	> 50000	–	–

Compound	EC50 (human CB2R) [nM]	EC50 (human CB1R) [nM]	EC50 (human CB2R; [1]) [nM]	EC50 (human CB1R; [2]) [nM]
COc1ccccc1-c1n[nH]c(NC(=O)C(C)(C)S(=O)(=O)CC2CC2)n1	15	> 20000	–	–
CC(C)(C(=O)Nc1nc(-c2ccc(O)cc2)n[nH]1)S(=O)(=O)C1CCCC1	36	> 50000	–	–
CC(C)(C(=O)Nc1nc(-c2ccc(O)cc2)n[nH]1)S(=O)(=O)CC1CCC1	22	> 50000	–	–
COc1ccc(-c2nnc(NC(=O)C(C)(C)S(=O)(=O)CC3CC3)[nH]2)c(F)c1	34	> 50000	–	–
COc1ccc(-c2nnc(NC(=O)C(C)(C)S(=O)(=O)C3CCOCC3)[nH]2)c(F)c1	13	> 50000	–	–
CC(C)(C(=O)Nc1nc(-c2ccccc2O)n[nH]1)S(=O)(=O)C1CCOCC1	30	> 20000	–	–
CC[C@@H](C)S(=O)(=O)C(C)(C)C(=O)Nc1nnc(-c2ccc(OC)cc2)[nH]1	83	> 50000	–	–
CC[C@H](C)S(=O)(=O)C(C)(C)C(=O)Nc1nnc(-c2ccc(OC)cc2)[nH]1	47	> 50000	–	–
CC(C)(C(=O)Nc1nnc(-c2ccc(O)cc2F)[nH]1)S(=O)(=O)C1CCOCC1	7.7	> 50000	–	–
CC(C)(C(=O)Nc1nnc(-c2ccc(O)cc2)[nH]1)S(=O)(=O)CC1CC1	34	> 50000	–	–
COc1ccc(-c2nnc(NC(=O)C(C)(C)S(=O)(=O)CC3CCC3)[nH]2)c(F)c1	7.6	> 20000	–	–
CC(C)(C(=O)Nc1nnc(-c2ccc(O)cc2F)[nH]1)S(=O)(=O)CC1CCC1	9.4	35000	–	–
CC(C)(O)c1cc(NC(=O)C(C)(C)S(=O)(=O)C2CCOCC2)on1	88	> 50000	–	–
CC(C)(O)c1cc(NC(=O)C(C)(C)S(=O)(=O)CCCC(F)(F)F)on1	49	> 20000	–	–
CC(C)CCS(=O)(=O)C(C)(C)C(=O)Nc1nnc(C(C)(C)CO)s1	18	> 20000	–	–
CO[C@H]1CC[C@@H](S(=O)(=O)C(C)(C)C(=O)Nc2cc(C(C)(C)CO)no2)CC1	57	> 50000	–	–
CC(C)(CO)c1cc(NC(=O)C(C)(C)S(=O)(=O)CC[C@H]2CCOC2)on1	6.2	> 20000	–	–
CC(C)(CO)c1cc(NC(=O)C(C)(C)S(=O)(=O)CC[C@@H]2CCOC2)on1	14	> 50000	–	–
COCC(C)(C)c1cc(NC(=O)C(C)(C)S(=O)(=O)C2CCN(S(C)(=O)=O)CC2)no1	6.2	> 50000	–	–
CC(C)(CO)c1cc(NC(=O)C(C)(C)S(=O)(=O)C2CCN(S(C)(=O)=O)CC2)no1	91	> 50000	–	–
CC(C)(CO)c1nnc(NC(=O)C(C)(C)S(=O)(=O)C[C@H]2CCCCO2)s1	28	> 50000	–	–
